Several values for one entry are separate records, joined by “and”; a condition that tells them apart may be missing. Identical values can stand only once.

The values that follow come from US20050070591A1, “Indole derivative” (priority 2001, published 2005).

The test system of experiment [1] is human epidermoid carcinoma cells A431. Nature of the experiment: Abrogating action for the cell cycle accumulation in G2 and S phases (flow cytometry DNA histogram). It is filed as cell-based. Conditions: cisplatin 20 μmol/L. On the procedure: Each 5 mL of human epidermoid carcinoma cells A431 (hereinafter, referred to as A431 cells) prepared in 6×10^4 cells/mL in a DMEM medium (manufactured by Nissui; hereinafter, referred to as the medium A) containing 10% fetal bovine serum were disposed in a 10-cm laboratory dish (manufactured by Falcon; product no. 3303). The plate was incubated in a carbon dioxide gas incubator at 37° C. for 24 hours, then cisplatin (manufactured by Sigma) where its final concentration in the medium A was made 20 μmol/L was added and the mixture was incubated at 37° C. for 1 hour in a carbon dioxide gas incubator.
After removing the medium, the cell was washed with PBS(−) [phosphate-buffered physiological saline solution (containing no calcium ion); manufactured by Dainippon Pharmaceutical, then the medium A was added thereto, the mixture was incubated at 37° C. for 15 hours in a carbon dioxide gas incubator, a compound which was appropriately diluted with the medium A was added thereto and the mixture was incubated again in a carbon dioxide gas incubator at 37° C. for 8 hours. After removal of the supernatant from the culture, the cell was washed with PBS(−), exfoliated with a 0.25% aqueous solution of trypsin (0.25% Trypsin manufactured by Gibco BRL) and a 0.02% aqueous solution of ethylenediaminetetraacetic acid (manufactured by Wako Pure Chemicals), fixed with a 70% aqueous solution of ethanol so as to make the cell concentration 10^6 cells/mL and preserved in a cool chamber of 4° C. The fixed cells were subjected to a centrifugal separation to remove ethanol, washed with PBS(−) and treated with a 0.25 mg/mL ribonuclease A type 1-A (manufactured by Sigma) PBS(−) solution containing 0.1% Nonidet P-40 (manufactured by Nakarai Kagaku Yakuhin) at 37° C. for 30 minutes and a 0.1% solution of propidium iodide (manufactured by Sigma) in NP-40/PBS(−) so as to make the final concentration 50 μg/mL followed by staining in ice for not shorter than 20 minutes.
A DNA histogram was measured using an EPICS ELITE Flow Cytometer (manufactured by Coulter) and distribution of cell cycle was analyzed using a MultiCycle Program (manufactured by Phonenix Flow Systems).
(In general: In flow cytometry, cells or beads pass a laser one at a time.)

The target in experiment [2] is T1, human CDK2-cyclin E (Homo sapiens, UniProt P24941).
T1 construct: made in house; host or cells: Spodoptera frugiperda (Sf-9) insect cells, baculovirus
Nature of the experiment: CDK2 inhibitory activity (incorporation of 32P from [γ-32P]-ATP into GST-RB). It is filed as biochemical. Conditions: 50 μmol/L ATP, 30° C., 5 minutes; read-out: Enzyme Inhibitory Activity, IC50. On the procedure: A crude extract of cells of an insect, Spodoptera frugiperda (Sf-9) infected with human CDK2-cyclin E-expressing baculovirus was subjected to an affinity purification to give an enzyme solution. The enzyme solution (4 μL), 20 μL of reaction solution containing a DMSO solution in which a test compound was dissolved (final concentration: 0.1%) and 5 μL of a substrate solution [50 μmol/L of ATP (final concentration), 2 μCi of [γ-^32P]-ATP and 500 ng of […] (GST-RB)] were incubated at 30° C. for 5 minutes. A sodium dodecylsulfate-polyacrylamide gel electrophoresis (SDS-PAGE) was carried out, then incorporation of radiation activity from [γ-^32P]-ATP into GST-RB was determined using an Image Analyzer BAS 200 (Fuji Photo-Film) and an enzyme inhibition was calculated. CDK2 inhibitory activity (I) at various concentrations of a test compound was calculated by the following formula using radiation activity (C) of the group to which no test compound was added, radiation activity (S) of the group to which a test compound was added and radiation activity (B) of a background (a sample where the reaction time was 0 hour) and a concentration by which CDK2 activity was inhibited to an extent of 50% by each test compound was defined as IC50. I(%)=[1−(S−B)/(C−B)]×100

In experiment [3] the test system is Saos-2 cells. Put plainly: Cell growth inhibition against human osteosarcoma cells Saos-2. The class given is cell-based. Conditions: Saos-2, 72 hours, read-out: Cell Growth Inhibitory Activity, IC50, Saos-2. The protocol:
(§1) Each of Saos-2 and U2OS cells was made into 1.0×10^4 cells/mL using a Roswell Park Memorial Institute's medium (RPMI) 1640 (manufactured by Nissui) containing 10% of fetal bovine serum and penicillin/streptomycin and a Dulbecco's modified Eagle medium (DME) (manufactured by Nissui) containing 10% fetal bovine serum and penicillin/streptomycin each. Each of the prepared cells was dispensed in an amount of 0.1 mL per well to a 96-well microtiter plate (#167008 manufactured by Nunk). Each plate was incubated in a carbon dioxide gas incubator at 37° C. for 20 hours. A solution of a test compound in DMSO prepared into 10 mmol/L was diluted with each medium for incubation and each 0.05 mL thereof was added to each well, subjected to stepwise dilution by means of a pipetting operation in the plate and incubated at 37° C. for 72 hours in a carbon dioxide gas incubator.
(§2) A supernatant was removed from cell culture, each well was washed with 0.1 mL of a phosphate buffer (PBS buffer) twice and 0.1 mL of the above medium was added to each well. A cell proliferation kit II (manufactured by Boehringer Mannheim) was used for the measurement of cell numbers in each well. A reagent for color reaction was added, incubation was carried out in a carbon dioxide gas incubator at 37° C. for 3 hours and absorbance at 490 nm and 650 nm was measured in a microplate reader (M-SP max 250; manufactured by Wako Pure Chemicals). A value where absorbance at 650 nm was deducted from that at 490 nm (difference absorbance) was calculated for each well and the difference absorbance obtained from non-treated cells and cells which were treated with a test compound of a known concentration was compared whereupon a concentration of the test compound which inhibited the cell growth to an extent of 50% was calculated and expressed as IC50.

The subject of experiment [4] is U2OS cells. Nature of the experiment: Cell growth inhibition against human osteosarcoma cells U2OS. The class given is cell-based. Conditions: 72 hours, read-out: Cell Growth Inhibitory Activity, IC50, U2OS. On the procedure: as §1, §2

Take `N.N.[Cl][Pt][Cl]` [Cisplatin, cisplatin]: in experiment [1], the “Cell Cycle Distribution (%) G1” value is 2.2% and 10.4%; the “Cell Cycle Distribution (%) G2M” value was 17.2% and 22.4%; the “Cell Cycle Distribution (%) S” value is 80.6% and 67.2%; the “Change of cell cycle distribution as compared with untreated groups (induction of the accumulation in G2 or S phase)” value was “increase in S phase, increase in G2 and M phase and decrease in G1 phase”.

Consider `CCCCC(=O)Oc1cccc(-c2cc3c(cc(C=O)n3C)c3c2C(=O)NC3=O)c1` [Compound 12], for which the concentration for half-maximal inhibition (IC50) – broadly, the concentration at which inhibition is half-maximal – in experiment [2] stood at 5000 nM.

As to `Cn1c2ccccc2c2c3c(c(CBr)cc21)C(=O)NC3=O` [Compound 36], in experiment [2], the half-inhibitory concentration (IC50) came out at 2300 nM.

Regarding `C=CCn1c2ccccc2c2c3c(c(N)cc21)C(=O)NC3=O` [Compound 45], the IC50 in experiment [2] is 4900 nM.

As for `C=CCn1c2ccccc2c2c3c(c(CO)cc21)C(=O)NC3=O` [Compound 46], the IC50 in experiment [2] turned out to be 3300 nM.

Turning to `C=CCn1c2ccccc2c2c3c(c(COC4CCCCO4)cc21)C(=O)NC3=O` (centres unmarked) [Compound 47], the half-maximal inhibitory concentration (IC50) in experiment [2] amounted to 4000 nM.

In the case of `C=CCn1c2ccccc2c2c3c(c(CN=[N+]=[N-])cc21)C(=O)NC3=O` [Compound 48], the IC50 in experiment [2] is 430 nM.

On to `C=CCn1c2ccccc2c2c3c(c(C=O)cc21)C(=O)NC3=O` [Compound 50], for which the 50% inhibitory concentration (IC50) in experiment [2] stood at 660 nM.

In the case of `C=CCn1c2ccccc2c2c3c(c(C=NNCCO)cc21)C(=O)NC3=O` [Compound 54], the IC50 in experiment [2] was 2000 nM.

Turning to `CN(C)CCCn1c2ccccc2c2c3c(c(C=O)cc21)C(=O)NC3=O` [Compound 64], the 50% inhibitory concentration (IC50) in experiment [2] came to 7000 nM; in experiment [3], 1300 nM; in experiment [4], 1600 nM.

For `CN(C)CCCn1c2ccccc2c2c3c(c(C=NO)cc21)C(=O)NC3=O` [Compound 65], the figures for the IC50 in experiment [2], in experiment [3] and in experiment [4] were 2800 nM, 680 nM and 500 nM, respectively.

Turning to `CC(Cn1c2ccccc2c2c3c(c(C=O)cc21)C(=O)NC3=O)N(C)C` (centres unmarked) [Compound 66], the concentration for half-maximal inhibition (IC50) in experiment [2] came to 250 nM; in experiment [3], 1200 nM; in experiment [4] it was 2100 nM.

On to `CC(Cn1c2ccccc2c2c3c(c(C=NO)cc21)C(=O)NC3=O)N(C)C` (centres unmarked) [Compound 68], for which the half-inhibitory concentration (IC50) in experiment [2] was determined as 200 nM; in experiment [3] it was 930 nM; in experiment [4], 1200 nM.

Consider `CC(Cn1c2ccccc2c2c3c(c(C=NN)cc21)C(=O)NC3=O)N(C)C` (centres unmarked) [Compound 69], for which the values for the IC50 in experiment [2], in experiment [3] and in experiment [4] were 960 nM, 300 nM and 680 nM, respectively.

As for `COC(=O)c1ccc(Cn2c3ccccc3c3c4c(c(COC5CCCCO5)cc32)C(=O)NC4=O)cc1` (centres unmarked) [Compound 79], the 50% inhibitory concentration (IC50) in experiment [2] stood at 2000 nM.

Consider `O=C1NC(=O)c2c1c(COC1CCCCO1)cc1c2c2ccccc2n1Cc1ccc2ccccc2c1` (centres unmarked) [Compound 80], for which the IC50 in experiment [2] stood at 2400 nM.
